# Reference: patent US11180521B2, “Nicotinamide riboside analogs, pharmaceutical compositions, and uses thereof” (Metro International Biotech, LLC, priority 2018, dated 2021)
# Key:
# Type in all cases: in vivo, C57BL/6 mice
# [1] = test system: NAD, NAAD, NAM, and NMN levels in liver; assay: PK/PD duration of effect study, single oral gavage dose: NAD, NAAD, NAM and NMN levels in liver; parameters: key to NAAD concentration: BQL: Below quantitation limit; BDL: Below Detection Limit, No Peak Detected; settings: 24 hr after 500 mg/kg oral gavage
# Experimental: (§1) Transcyclohexyl nicotinic acid riboside (NaR) dimer was administered by oral gavage at a dose of 500 mg/kg in an Ethanol/PBS, pH 7.4/PEG400 (10/30/60) vehicle. The dosing volume was 5 ml/kg at a solution concentration of 100 mg/ml. The solution concentration was increased for the presence of counterion.
# (§2) Animals were fasted for 16 hours prior to dosing. Samples were collected pre-dose and at 0.25, 0.75, 1, 2, 4, 8 and 24 hr post dosing. Following euthanasia, the entire liver and skeletal muscle (gastrocnemius with attached soleus muscle, bilateral) were rinsed with 0.9% saline, and frozen for later bioanalysis. Samples were maintained frozen at −80° C. until bioanalysis.
# (§3) Samples were thawed, homogenized, extracted and analyzed by LC-MS on the same day. The LC used was a Shimadzu Nexera UPLC, and the mass spectrometer was an AB Sciex Qtrap 6500. Specimens were analyzed for levels of administered compound (transcyclohexyl NaR dimer), as well as for levels of NAD, NAAD, NAM, and NMN by the method of standard addition, to detect alterations from the basal levels of the analytes. Calibration standards for quantifying administered compound were prepared using transcyclohexyl NaR dimer in mouse liver or skeletal muscle homogenates. Corresponding standards for quantifying other metabolites were also prepared. Data are calculated as the mean concentration from n=6 animals per time point.
# [2] = PK/PD duration of effect study, single oral gavage dose: administered compound level in skeletal muscle; parameters: key to transcyclohexyl NaR dimer concentration: BQL: Below quantitation limit; BDL: Below Detection Limit, No Peak Detected; settings: pre-dose BQL
# Experimental: as §1, §2, §3
# [3] = test system: NAD, NAAD, NAM, and NMN levels in skeletal muscle; assay: PK/PD duration of effect study, single oral gavage dose: NAD, NAAD, NAM and NMN levels in skeletal muscle; parameters: key to NAAD concentration: BQL: Below quantitation limit; BDL: Below Detection Limit, No Peak Detected; settings: for NAAD concentration: pre-dose BDL
# Experimental: as §1, §2, §3
# [4] = 0.25 hr after 500 mg/kg oral gavage
# [5] = 1 hr after 500 mg/kg oral gavage
# [6] = 2 hr after 500 mg/kg oral gavage
# [7] = 24 hr after 500 mg/kg oral gavage
compound,measurement,setting,value
"CC(=O)OC[C@H]1O[C@@H]([n+]2cccc(C(=O)O[C@H]3CC[C@H](OC(=O)c4ccc[n+]([C@@H]5O[C@H](COC(C)=O)[C@@H](OC(C)=O)[C@H]5OC(C)=O)c4)CC3)c2)[C@H](OC(C)=O)[C@@H]1OC(C)=O [transcyclohexyl NaR dimer, Transcyclohexyl nicotinic acid riboside (NaR) dimer]",NMN concentration,[1]; pre-dose 2.13,1.53 µg/g
same,NAM concentration,[1]; pre-dose 52.5,46.6 µg/g
same,NAD concentration,[1]; pre-dose 713,731 µg/g
same,NAAD concentration,[1]; pre-dose BDL,BDL
same,transcyclohexyl NaR dimer concentration,[2]; [4],0.0142 mmol/kg
same,transcyclohexyl NaR dimer concentration,[2]; [5],0.00109 mmol/kg
same,transcyclohexyl NaR dimer concentration,[2]; [6],BQL
same,transcyclohexyl NaR dimer concentration,[2]; 4 hr after 500 mg/kg oral gavage,BQL
same,transcyclohexyl NaR dimer concentration,[2]; 8 hr after 500 mg/kg oral gavage,BQL
same,transcyclohexyl NaR dimer concentration,[2]; [7],BQL
same,concentration at 0.25 h,"[2]; C57BL/6, mouse, 0.25 hr after 500 mg/kg oral gavage, read-out: transcyclohexyl NaR dimer concentration",12000 ng/g
same,concentration at 1 h,"[2]; C57BL/6, mouse, 1 hr after 500 mg/kg oral gavage, read-out: transcyclohexyl NaR dimer concentration",921 ng/g
same,NMN concentration,"[3]; 0.25 hr after 500 mg/kg oral gavage, pre-dose 0.00225",0.002 mmol/kg
same,NAM concentration,"[3]; 0.25 hr after 500 mg/kg oral gavage, pre-dose 0.159",0.161 mmol/kg
same,NMN concentration,"[3]; 0.25 hr after 500 mg/kg oral gavage, pre-dose 0.752",0.667 µg/g
same,NAD concentration,"[3]; 0.25 hr after 500 mg/kg oral gavage, pre-dose 0.781",0.826 mmol/kg
same,NAM concentration,"[3]; 0.25 hr after 500 mg/kg oral gavage, pre-dose 19.4",19.7 µg/g
same,NAD concentration,"[3]; 0.25 hr after 500 mg/kg oral gavage, pre-dose 518",548 µg/g
same,NAAD concentration,[3]; [4],BDL
same,NMN concentration,"[3]; 0.75 hr after 500 mg/kg oral gavage, pre-dose 0.00225",0.00196 mmol/kg
same,NAM concentration,"[3]; 0.75 hr after 500 mg/kg oral gavage, pre-dose 0.159",0.208 mmol/kg
same,NMN concentration,"[3]; 0.75 hr after 500 mg/kg oral gavage, pre-dose 0.752",0.656 µg/g
same,NAD concentration,"[3]; 0.75 hr after 500 mg/kg oral gavage, pre-dose 0.781",0.861 mmol/kg
same,NAM concentration,"[3]; 0.75 hr after 500 mg/kg oral gavage, pre-dose 19.4",25.3 µg/g
same,NAD concentration,"[3]; 0.75 hr after 500 mg/kg oral gavage, pre-dose 518",571 µg/g
same,NAAD concentration,[3]; 0.75 hr after 500 mg/kg oral gavage,BDL
same,NMN concentration,"[3]; 1 hr after 500 mg/kg oral gavage, pre-dose 0.00225",0.00173 mmol/kg
same,NAM concentration,"[3]; 1 hr after 500 mg/kg oral gavage, pre-dose 0.159",0.184 mmol/kg
same,NMN concentration,"[3]; 1 hr after 500 mg/kg oral gavage, pre-dose 0.752",0.579 µg/g
same,NAD concentration,"[3]; 1 hr after 500 mg/kg oral gavage, pre-dose 0.781",0.720 mmol/kg
same,NAM concentration,"[3]; 1 hr after 500 mg/kg oral gavage, pre-dose 19.4",22.4 µg/g
same,NAD concentration,"[3]; 1 hr after 500 mg/kg oral gavage, pre-dose 518",478 µg/g
same,NAAD concentration,[3]; [5],BDL
same,NMN concentration,"[3]; 2 hr after 500 mg/kg oral gavage, pre-dose 0.00225",0.00191 mmol/kg
same,NAM concentration,"[3]; 2 hr after 500 mg/kg oral gavage, pre-dose 0.159",0.0918 mmol/kg
same,NMN concentration,"[3]; 2 hr after 500 mg/kg oral gavage, pre-dose 0.752",0.639 µg/g
same,NAD concentration,"[3]; 2 hr after 500 mg/kg oral gavage, pre-dose 0.781",0.875 mmol/kg
same,NAM concentration,"[3]; 2 hr after 500 mg/kg oral gavage, pre-dose 19.4",11.2 µg/g
same,NAD concentration,"[3]; 2 hr after 500 mg/kg oral gavage, pre-dose 518",581 µg/g
same,NAAD concentration,[3]; [6],BDL
same,NMN concentration,"[3]; 4 hr after 500 mg/kg oral gavage, pre-dose 0.00225",0.00222 mmol/kg
same,NAM concentration,"[3]; 4 hr after 500 mg/kg oral gavage, pre-dose 0.159",0.166 mmol/kg
same,NMN concentration,"[3]; 4 hr after 500 mg/kg oral gavage, pre-dose 0.752",0.740 µg/g
same,NAD concentration,"[3]; 4 hr after 500 mg/kg oral gavage, pre-dose 0.781",0.726 mmol/kg
same,NAM concentration,"[3]; 4 hr after 500 mg/kg oral gavage, pre-dose 19.4",20.2 µg/g
same,NAD concentration,"[3]; 4 hr after 500 mg/kg oral gavage, pre-dose 518",482 µg/g
same,NMN concentration,"[3]; 8 hr after 500 mg/kg oral gavage, pre-dose 0.00225",0.00245 mmol/kg
same,NAM concentration,"[3]; 8 hr after 500 mg/kg oral gavage, pre-dose 0.159",0.170 mmol/kg
same,NMN concentration,"[3]; 8 hr after 500 mg/kg oral gavage, pre-dose 0.752",0.818 µg/g
same,NAD concentration,"[3]; 8 hr after 500 mg/kg oral gavage, pre-dose 0.781",0.648 mmol/kg
same,NAM concentration,"[3]; 8 hr after 500 mg/kg oral gavage, pre-dose 19.4",20.8 µg/g
same,NAD concentration,"[3]; 8 hr after 500 mg/kg oral gavage, pre-dose 518",430 µg/g
same,NMN concentration,"[3]; 24 hr after 500 mg/kg oral gavage, pre-dose 0.00225",0.00199 mmol/kg
same,NAM concentration,"[3]; 24 hr after 500 mg/kg oral gavage, pre-dose 0.159",0.155 mmol/kg
same,NMN concentration,"[3]; 24 hr after 500 mg/kg oral gavage, pre-dose 0.752",0.665 µg/g
same,NAD concentration,"[3]; 24 hr after 500 mg/kg oral gavage, pre-dose 0.781",0.635 mmol/kg
same,NAM concentration,"[3]; 24 hr after 500 mg/kg oral gavage, pre-dose 19.4",18.9 µg/g
same,NAD concentration,"[3]; 24 hr after 500 mg/kg oral gavage, pre-dose 518",421 µg/g
same,NAAD concentration,[3]; [7],BDL
